Like-named read-outs stand apart in the source and are kept apart here.
Assays:
[1] = target: T1, human full length PIK3KA H1047R mutant (p110α/p85α complex) (Homo sapiens, UniProt P42336, H1047R); experiment: PI3K-Alpha Kinase (PIK3CA) biochemical activity, H1047R mutant (ADP-Glo); details: 20 uM ATP
T1 construct: Recombinant, catalytically active human full length PIK3KA Wild-type and H1047R mutant were purchased; 6xHis (N); purchased EMD Millipore Sigma 14-792M
In short: (§1)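 ADP formation, measured by ADP-Glo luminescence after reaction to about 10% ATP conversion at 27° C., gives 10-point 4-parameter IC50 curves normalized to no-enzyme and DMSO controls. Lipid substrate was PIP2diC8 or Soy PI at 50 uM, with 20 uM ATP. WT or H1047R p110α/p85α complex (1-5 nM) was preincubated 1 h with compound.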

[2] = target: T2, human full length PIK3KA Wild-type (p110α/p85α complex) (Homo sapiens, UniProt P42336); experiment: PI3K-Alpha Kinase (PIK3CA) biochemical activity, wild-type (ADP-Glo); details: 20 uM ATP
T2 construct: Recombinant, catalytically active human full length PIK3KA Wild-type and H1047R mutant were purchased; 6xHis (N); purchased EMD Millipore Sigma 14-602M
In short: as §1

[3] = target: PI3K-α (PIK3CA) in MDA-MB-453 cells (Homo sapiens, UniProt P42336); experiment: PI3K-Alpha Kinase (PIK3CA) activity in vitro cell based assay (AlphaLisa SureFire)
Procedure: PI3K-Alpha Kinase (PIK3CA) Activity In Vitro Cell Based Assay and Determining IC50 Values for Inhibitors
The MDA-MB-453 (ATCC-HTB-131) cell line was obtained from the American Type Culture Collection (Manassas, Va.). Cells were maintained in Dulbecco's Modified Eagle Media (DMVEM, Gibco 11965-092) supplemented with 10% Fetal Bovine Serum, heat inactivated (FBS HI, Gibco 10082-147), 1× non-essential amino acids (NEAA, Gibco 11140-050), and 1 mM sodium pyruvate (Gibco 11360-070). Cultures were maintained in a humidified incubator at 37° C. under […].
For compound testing in 0% FBS, MDA-MB-453 cells were seeded at a density of 1.5×10^4 cells per well in white 384-well plates in 20 μl of Minimum Essential Media (MEM) assay media with 1×NEAA, 1 mM sodium pyruvate, and 1 μg/mL human insulin (Sigma I9278). Compounds dissolved in 10 mM stock solutions in DMSO were serially diluted 1:3 in DMSO to generate a 10-point dilution series and plated using an acoustic liquid handler system (Echo 550 Series Liquid Handler, Labcyte). A 5× intermediate compound dilution plate in MEM with 1×NEAA and 1 mM sodium pyruvate (150 μM starting compound concentration in 1.5% DMSO) was then prepared. Five μl of the intermediate serially diluted compounds were added to the cell plate to final concentrations ranging from […] in 0.3% DMSO. 0.3% DMSO alone was used to establish the maximum (MAX) signal and GDC-0032 at a final concentration of 1 μM was used as a reference compound for the minimum (MIN) signal. After 3 hours treatment, the medium was removed, and the cells lysed in 10 μL of 1× SureFire Lysis buffer with shaking for 10 minutes at room temperature. The Acceptor Mix (Reaction Buffer 1+Reaction Buffer 2+Activation Buffer+SureFire Ultra Acceptor Beads) was prepared by diluting Activation buffer 25-fold in combined Reaction Buffer 1 and Reaction Buffer 2. The Acceptor beads were diluted 50-fold in the combined Reaction Buffers. Five μL of Acceptor Mix was added to each well, the plate was sealed and covered with foil and incubated for 1 hour at room temperature. The Donor Mix (dilution buffer+SureFire Ultra Donor Beads) was prepared by diluting Donor Beads 50-fold in dilution buffer. Five μL of the Donor Mix was added to each well and the plate sealed and covered with foil and incubated for 1 hour at room temperature in the dark. The plates were read on a Neo2 plate reader instrument from Biotek using standard AlphaLisa settings.
Compounds were tested in duplicate and the average % inhibition at each compound concentration was used to generate a single dose response curve. The data were processed using the Genedata-Screener tool. Relative IC50 values were determined using luminescence units by calculating percent inhibition with respect to the in-plate “MIN” (GDC-0032 reference control) and “MAX” (DMSO) controls. The data was analyzed using a 4-parameter nonlinear logistic equation (four-parameter logistic concentration-response curve):
Y=bottom+[(top−bottom)/1+(X/IC50)slope]
where Y=% inhibition, X=concentration of inhibitor, bottom=minimum value of y attained by curve-fit, top=maximum value of y attained by curve-fit and slope=steepness of curve at the IC50.
% Inhibition=[(signal at X−median Min)/(median Max−median Min)]×100
IC50: concentration of compound that reduces a given response (ligand binding, enzyme response) by 50%. Relative IC50: concentration giving half the compound's maximum response.
For IC50 values shown in Table B, “A” means IC50<50 nM; “B” means IC50 ranging between 50 nM and 100 nM; “C” means IC50 ranging between 100 nM and 500 nM; “D” means IC50>500 nM.

[4] = read-out: PI3K-α (PIK3CA) in vitro cell based assay IC50, 0% FBS, 3 hours treatment

PI3K-α (PIK3CA) in MDA-MB-453 cells, sequence (P42336 whole entry): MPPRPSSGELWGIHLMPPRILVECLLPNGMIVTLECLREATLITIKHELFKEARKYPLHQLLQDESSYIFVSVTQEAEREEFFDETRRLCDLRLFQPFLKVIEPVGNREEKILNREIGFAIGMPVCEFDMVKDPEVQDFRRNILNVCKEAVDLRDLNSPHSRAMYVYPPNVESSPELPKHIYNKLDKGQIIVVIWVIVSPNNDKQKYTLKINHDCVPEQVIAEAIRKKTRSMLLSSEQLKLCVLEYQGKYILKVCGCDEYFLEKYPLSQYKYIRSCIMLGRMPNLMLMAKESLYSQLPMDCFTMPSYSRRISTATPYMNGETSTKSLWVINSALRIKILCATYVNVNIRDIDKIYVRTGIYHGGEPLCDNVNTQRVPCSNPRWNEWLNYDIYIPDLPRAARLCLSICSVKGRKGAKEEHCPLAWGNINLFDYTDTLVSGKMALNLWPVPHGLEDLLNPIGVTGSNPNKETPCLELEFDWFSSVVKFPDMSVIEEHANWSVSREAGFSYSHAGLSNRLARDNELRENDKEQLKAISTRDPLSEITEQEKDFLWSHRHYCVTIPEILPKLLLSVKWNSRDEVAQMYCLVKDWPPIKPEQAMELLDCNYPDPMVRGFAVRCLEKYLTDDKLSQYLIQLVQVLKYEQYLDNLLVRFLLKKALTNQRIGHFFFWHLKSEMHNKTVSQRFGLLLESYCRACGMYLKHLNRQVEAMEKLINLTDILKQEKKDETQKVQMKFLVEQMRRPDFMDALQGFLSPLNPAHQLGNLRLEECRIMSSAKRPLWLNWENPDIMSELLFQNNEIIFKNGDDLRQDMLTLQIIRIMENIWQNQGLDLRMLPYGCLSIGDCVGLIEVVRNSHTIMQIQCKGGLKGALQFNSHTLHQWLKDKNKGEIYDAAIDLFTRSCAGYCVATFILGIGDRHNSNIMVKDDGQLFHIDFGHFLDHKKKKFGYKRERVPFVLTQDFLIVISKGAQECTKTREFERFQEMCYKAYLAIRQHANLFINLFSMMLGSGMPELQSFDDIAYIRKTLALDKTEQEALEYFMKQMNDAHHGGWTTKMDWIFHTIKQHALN
PI3K-α (PIK3CA) in MDA-MB-453 cells, sequence (P27986 2-724, further chain): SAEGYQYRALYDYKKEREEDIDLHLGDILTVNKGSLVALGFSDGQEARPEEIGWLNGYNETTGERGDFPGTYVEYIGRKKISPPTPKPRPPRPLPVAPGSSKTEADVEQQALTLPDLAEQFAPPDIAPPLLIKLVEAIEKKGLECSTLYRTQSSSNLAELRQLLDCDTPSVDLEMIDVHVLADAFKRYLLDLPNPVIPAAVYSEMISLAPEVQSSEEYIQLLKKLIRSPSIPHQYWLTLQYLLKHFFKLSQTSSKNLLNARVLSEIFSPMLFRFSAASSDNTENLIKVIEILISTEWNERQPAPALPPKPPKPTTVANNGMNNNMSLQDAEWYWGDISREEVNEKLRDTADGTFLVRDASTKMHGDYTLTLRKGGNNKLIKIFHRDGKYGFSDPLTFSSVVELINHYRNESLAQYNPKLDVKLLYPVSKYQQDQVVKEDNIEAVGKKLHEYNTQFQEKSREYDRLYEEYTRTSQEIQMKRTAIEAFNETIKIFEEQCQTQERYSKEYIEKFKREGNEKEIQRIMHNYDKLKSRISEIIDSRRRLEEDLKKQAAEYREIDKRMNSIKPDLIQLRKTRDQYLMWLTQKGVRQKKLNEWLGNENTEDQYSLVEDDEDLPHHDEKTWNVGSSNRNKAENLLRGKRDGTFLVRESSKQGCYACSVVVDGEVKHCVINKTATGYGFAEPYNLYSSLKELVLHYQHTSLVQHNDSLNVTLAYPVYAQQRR
T1 sequence (P42336 whole entry H1047R): as the sequence (P42336 whole entry) above, with H1047R counted along it
T1 sequence (P27986 whole entry partner): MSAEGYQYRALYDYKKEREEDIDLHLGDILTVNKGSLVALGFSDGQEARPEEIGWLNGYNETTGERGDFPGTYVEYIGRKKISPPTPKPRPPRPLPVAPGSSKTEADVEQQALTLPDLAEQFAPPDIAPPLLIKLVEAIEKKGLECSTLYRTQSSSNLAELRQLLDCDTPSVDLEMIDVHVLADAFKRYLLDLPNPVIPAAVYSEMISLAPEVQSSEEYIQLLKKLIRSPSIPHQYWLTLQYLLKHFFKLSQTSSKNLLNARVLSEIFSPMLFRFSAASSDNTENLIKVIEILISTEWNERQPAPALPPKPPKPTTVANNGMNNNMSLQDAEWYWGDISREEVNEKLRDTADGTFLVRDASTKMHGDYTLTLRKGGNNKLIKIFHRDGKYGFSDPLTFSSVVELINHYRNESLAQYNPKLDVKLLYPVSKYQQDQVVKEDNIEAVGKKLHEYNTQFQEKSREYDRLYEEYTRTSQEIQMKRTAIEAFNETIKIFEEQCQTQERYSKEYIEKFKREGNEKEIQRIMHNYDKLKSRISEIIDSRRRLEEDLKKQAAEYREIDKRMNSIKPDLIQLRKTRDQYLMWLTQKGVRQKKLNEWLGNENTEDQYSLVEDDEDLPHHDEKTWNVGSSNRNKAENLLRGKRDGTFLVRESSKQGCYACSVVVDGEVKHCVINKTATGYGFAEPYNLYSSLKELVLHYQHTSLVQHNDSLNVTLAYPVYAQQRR

SMILES | IC50 ([1]; PIP2diC8 lipid substrate) | IC50 ([2]; PIP2diC8 lipid substrate) | IC50 ([3]; 0% FBS, 3 hours treatment, read-out: PI3K-α (PIK3CA) in vitro cell based assay IC50) | IC50 ([1]; Soy PI lipid substrate) | IC50 ([2]; Soy PI lipid substrate) | IC50 [3, 4]
COc1ncc(-c2cc(=O)c3cc(C)cc(C(C)Nc4ccccc4C(=O)O)c3o2)cn1 (single isomer, unassigned) [Example 5, 2-[1-[2-(2-Methoxypyrimidin-5-yl)-6-methyl-4-oxo-chromen-8-yl]ethylamino]benzoic acid] | > 10000 nM | > 10000 nM | > 500 nM | – | – | –
Cc1cc(C(C)Nc2ccccc2C(=O)O)c2oc(-c3cncc(F)c3)cc(=O)c2c1 (single isomer, unassigned) [Example 44, 2-[1-[2-(5-Fluoro-3-pyridyl)-6-methyl-4-oxo-chromen-8-yl]ethylamino]benzoic acid, Isomer 2,2,2,2-trifluoroacetic acid] | – | – | – | < 500 nM | 1000 to 5000 nM | < 50 nM
CC(Nc1ccccc1C(=O)O)c1cc(F)cc2c(=O)cc(-c3ccccn3)oc12 (single isomer, unassigned) [Example 46, 2-[1-[6-Fluoro-4-oxo-2-(2-pyridyl)chromen-8-yl]ethylamino]benzoic acid, Isomer 1,2,2,2-trifluoroacetic acid] | – | – | – | < 500 nM | 5000 to 10000 nM | < 50 nM
Cc1cc(C(C)Nc2ccccc2C(=O)O)c2oc(-c3cnn(C(F)F)c3)cc(=O)c2c1 (single isomer, unassigned) [Example 52, 2-[1-[2-[1-(Difluoromethyl)pyrazol-4-yl]-6-methyl-4-oxo-chromen-8-yl]ethylamino]benzoic acid, Isomer 2,2,2,2-trifluoroacetic acid] | – | – | – | < 500 nM | 1000 to 5000 nM | 50 to 100 nM
CC(Nc1ccccc1C(=O)O)c1cc(F)cc2c(=O)cc(-c3cnn(-c4cccnc4)c3)oc12 (single isomer, unassigned) [Example 55, 2-[1-[6-Fluoro-4-oxo-2-[1-(3-pyridyl)pyrazol-4-yl]chromen-8-yl]ethylamino]benzoic acid, Isomer 1,2,2,2-trifluoroacetic acid] | – | – | – | < 500 nM | 5000 to 10000 nM | 100 to 500 nM
COc1ccc(-c2oc3c(C(C)Nc4ccccc4C(=O)O)cc(C)cc3c(=O)c2C)cn1 (single isomer, unassigned) [Example 65, 2-[1-[2-(6-Methoxy-3-pyridyl)-3,6-dimethyl-4-oxo-chromen-8-yl]ethylamino]benzoic acid, Isomer 1,2,2,2-trifluoroacetic acid] | – | – | – | < 500 nM | 1000 to 5000 nM | < 50 nM
COc1ccccc1-n1cc(-c2oc3c(C(C)Nc4ccccc4C(=O)O)cc(C)cc3c(=O)c2C)cn1 (single isomer, unassigned) [Example 70, 2-[1-2-[1-(2-Methoxyphenyl)pyrazol-4-yl]-3,6-dimethyl-4-oxo-chromen-8-yl]ethylamino]benzoic acid, Isomer 1,2,2,2-trifluoroacetic acid] | – | – | – | 1000 to 5000 nM | 1000 to 5000 nM | < 50 nM
COc1ncc(-n2cc(-c3oc4c(C(C)Nc5ccccc5C(=O)O)cc(C)cc4c(=O)c3C)cn2)cn1 (single isomer, unassigned) [Example 72, 2-[1-[2-[1-(2-Methoxypyrimidin-5-yl)pyrazol-4-yl]-3,6-dimethyl-4-oxo-chromen-8-yl]ethylamino]benzoic acid, Isomer 1,2,2,2-trifluoroacetic acid] | – | – | – | < 500 nM | 1000 to 5000 nM | 50 to 100 nM
Cc1cc(C(C)Nc2ccccc2C(=O)O)c2oc(-c3cnn(-c4ccc(C#N)cc4)c3)c(C)c(=O)c2c1 (single isomer, unassigned) [Example 73, 2-[1-[2-[1-(4-Cyanophenyl)pyrazol-4-yl]-3,6-dimethyl-4-oxo-chromen-8-yl]ethylamino]benzoic acid, Isomer 1,2,2,2-trifluoroacetic acid] | – | – | – | < 500 nM | 500 to 1000 nM | 50 to 100 nM
Cc1cc(C(C)Nc2ccccc2C(=O)O)c2oc(-c3cnn(-c4cccc(C#N)c4)c3)c(C)c(=O)c2c1 (single isomer, unassigned) [Example 74, 2-[1-[2-[1-(3-Cyanophenyl)pyrazol-4-yl]-3,6-dimethyl-4-oxo-chromen-8-yl]ethylamino]benzoic acid, Isomer 1,2,2,2-trifluoroacetic acid] | – | – | – | < 500 nM | 500 to 1000 nM | < 50 nM
Cc1cc(C(C)Nc2ccccc2C(=O)O)c2oc(-c3cc(C)n[nH]3)cc(=O)c2c1 (single isomer, unassigned) [Example 75, 2-[1-[6-Methyl-2-(3-methyl-1H-pyrazol-5-yl)-4-oxo-chromen-8-yl]ethylamino]benzoic acid, Isomer 2,2,2,2-trifluoroacetic acid] | – | – | – | < 500 nM | 5000 to 10000 nM | 50 to 100 nM
COc1ccc(-n2cc(-c3cc(=O)c4cc(C)cc(C(C)Nc5ccccc5C(=O)O)c4o3)cn2)cc1 (single isomer, unassigned) [Example 79, 2-[1-[2-[1-(4-Methoxyphenyl)pyrazol-4-yl]-6-methyl-4-oxo-chromen-8-yl]ethylamino]benzoic acid, Isomer 2,2,2,2-trifluoroacetic acid] | – | – | – | < 500 nM | 1000 to 5000 nM | 50 to 100 nM
Cc1cc(C(C)Nc2ccccc2C(=O)O)c2oc(-c3cnn(-c4ccccc4)c3)cc(=O)c2c1 (single isomer, unassigned) [Example 80, 2-[1-[6-Methyl-4-oxo-2-(1-phenylpyrazol-4-yl)chromen-8-yl]ethylamino]benzoic acid, Isomer 2,2,2,2-trifluoroacetic acid] | – | – | – | < 500 nM | 5000 to 10000 nM | < 50 nM
COc1ccc(-n2cc(-c3cc(=O)c4cc(C)cc(C(C)Nc5ccccc5C(=O)O)c4o3)cn2)cn1 (single isomer, unassigned) [Example 81, 2-[1-[2-[1-(6-Methoxy-3-pyridyl)pyrazol-4-yl]-6-methyl-4-oxo-chromen-8-yl]ethylamino]benzoic acid, Isomer 2,2,2,2-trifluoroacetic acid] | – | – | – | 500 to 1000 nM | 5000 to 10000 nM | 50 to 100 nM
Cc1cc(C(C)Nc2ccccc2C(=O)O)c2oc(-c3cnn(-c4ccc(C#N)nc4)c3)cc(=O)c2c1 (single isomer, unassigned) [Example 82, 2-[1-[2-[1-(6-Cyano-3-pyridyl)pyrazol-4-yl]-6-methyl-4-oxo-chromen-8-yl]ethylamino]benzoic acid, Isomer 2,2,2,2-trifluoroacetic acid] | – | – | – | < 500 nM | 1000 to 5000 nM | 50 to 100 nM
Cc1cc(C(C)Nc2ccccc2C(=O)O)c2oc(-c3cnn(-c4ccc(C#N)cn4)c3)cc(=O)c2c1 (single isomer, unassigned) [Example 83, 2-[1-[2-[1-(5-Cyano-2-pyridyl)pyrazol-4-yl]-6-methyl-4-oxo-chromen-8-yl]ethylamino]benzoic acid, Isomer 2,2,2,2-trifluoroacetic acid] | – | – | – | < 500 nM | > 10000 nM | 50 to 100 nM
